Laboratory results published in the NIST ThermoML archive (doi:10.1021/je3002078).
Numbers after ± are expanded uncertainties.

Conditions: Liquid; for mass density: 101.33 kPa, Vibrating tube method; for vapor or sublimation pressure: Ebulliometric method (Recirculating still)

Row | mass density (303.15 K) | mass density (308.15 K) | vapor or sublimation pressure (442.28 K) | vapor or sublimation pressure (489.79 K) | vapor or sublimation pressure (474.01 K) | Compound | vapor or sublimation pressure (399.89 K)
1 | 1008.12 ± 0.51 kg/m3 | 1005.08 ± 0.51 kg/m3 | 95.3 ± 7.1 kPa | – | – | NCCO [2-aminoethan-1-ol] | –
2 | 1012.65 ± 0.51 kg/m3 | 1008.68 ± 0.51 kg/m3 | – | 95.3 ± 7.1 kPa | – | OCCc1ccccc1 [2-phenylethanol] | –
3 | 1023.45 ± 0.51 kg/m3 | 1013.34 ± 0.51 kg/m3 | – | – | 95.3 ± 7.1 kPa | CN1CCCC1=O [N-methylpyrrolidone] | –

Row | Compound | mass density (303.15 K) | mass density (308.15 K) | vapor or sublimation pressure (442.28 K) | vapor or sublimation pressure (489.79 K) | vapor or sublimation pressure (474.01 K) | vapor or sublimation pressure (399.89 K)
4 | OCCCl [1-chloro-2-hydroxyethane] | 1192.48 ± 0.53 kg/m3 | 1186.44 ± 0.53 kg/m3 | – | – | – | 95.3 ± 7.1 kPa
